Assay results from PubChem BioAssay (NCI).
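Cultured in 96-well plates, cells were exposed to test compound for 48 hours across five concentrations. GI50 is the concentration that inhibits growth by half. TGI denotes the concentration required for complete inhibition of growth.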

Columns and labels:
Assay in all cases: inhibition of tumour cell growth, NCI panel, 48 h
786-0 renal = system: 786-0 renal
A498 renal = system: A498 renal
A549 NSCLC = system: A549 NSCLC
ACHN renal = system: ACHN renal
BT-549 breast = system: BT-549 breast
CAKI-1 renal = system: CAKI-1 renal
CCRF-CEM leukemia = system: CCRF-CEM leukemia
COLO 205 colon = system: COLO 205 colon
DU-145 prostate = system: DU-145 prostate
EKVX NSCLC = system: EKVX NSCLC
HCC-2998 colon = system: HCC-2998 colon
HCT-116 colon = system: HCT-116 colon
HCT-15 colon = system: HCT-15 colon
HL-60(TB) leukemia = system: HL-60(TB) leukemia
HOP-62 NSCLC = system: HOP-62 NSCLC
HOP-92 NSCLC = system: HOP-92 NSCLC
HS 578T breast = system: HS 578T breast
HT29 colon = system: HT29 colon
IGROV1 ovarian = system: IGROV1 ovarian
K-562 leukemia = system: K-562 leukemia
KM12 colon = system: KM12 colon
LOX IMVI melanoma = system: LOX IMVI melanoma
M14 melanoma = system: M14 melanoma
MALME-3M melanoma = system: MALME-3M melanoma
MCF7 breast = system: MCF7 breast
MDA-MB-231 breast = system: MDA-MB-231 breast
MDA-MB-435 = system: MDA-MB-435
MOLT-4 leukemia = system: MOLT-4 leukemia
NCI-H226 lung = system: NCI-H226 lung
NCI-H23 lung = system: NCI-H23 lung
NCI-H460 lung = system: NCI-H460 lung
NCI-H522 lung = system: NCI-H522 lung
NCI/ADR-RES ovarian = system: NCI/ADR-RES ovarian
OVCAR-3 ovarian = system: OVCAR-3 ovarian
OVCAR-4 ovarian = system: OVCAR-4 ovarian
OVCAR-5 ovarian = system: OVCAR-5 ovarian
OVCAR-8 ovarian = system: OVCAR-8 ovarian
PC-3 prostate = system: PC-3 prostate
RPMI-8226 leukemia = system: RPMI-8226 leukemia
RXF 393 renal = system: RXF 393 renal
SF-268 CNS = system: SF-268 CNS
SF-295 CNS = system: SF-295 CNS
SF-539 CNS = system: SF-539 CNS
SK-MEL-2 melanoma = system: SK-MEL-2 melanoma
SK-MEL-28 melanoma = system: SK-MEL-28 melanoma
SK-MEL-5 melanoma = system: SK-MEL-5 melanoma
SK-OV-3 ovarian = system: SK-OV-3 ovarian
SN12C renal = system: SN12C renal
SNB-19 CNS = system: SNB-19 CNS
SNB-75 CNS = system: SNB-75 CNS
SR leukemia = system: SR leukemia
SW-620 colon = system: SW-620 colon
T-47D breast = system: T-47D breast
TK-10 renal = system: TK-10 renal
U251 CNS = system: U251 CNS
UACC-257 melanoma = system: UACC-257 melanoma
UACC-62 melanoma = system: UACC-62 melanoma
UO-31 renal = system: UO-31 renal

SMILES: COc1ncc(Nc2ncc([C@@H](C)N3CCN(S(C)(=O)=O)CC3)cc2-c2nc(C)nc(N)n2)cc1F
- GI50 (786-0 renal): 19.2 nM
- TGI (786-0 renal): 2860 nM
- GI50 (A498 renal): < 10 nM
- TGI (A498 renal): 30.9 nM
- GI50 (A549 NSCLC): 186 nM
- TGI (A549 NSCLC): > 40700 nM
- GI50 (ACHN renal): 65.1 nM
- TGI (ACHN renal): > 100000 nM
- GI50 (BT-549 breast): 21.9 nM
- TGI (BT-549 breast): 6230 nM
- GI50 (CAKI-1 renal): 194 nM
- TGI (CAKI-1 renal): > 100000 nM
- GI50 (CCRF-CEM leukemia): 145 nM
- TGI (CCRF-CEM leukemia): > 54100 nM
- GI50 (COLO 205 colon): 122 nM
- TGI (COLO 205 colon): 15300 nM
- GI50 (DU-145 prostate): 183 nM
- TGI (DU-145 prostate): > 100000 nM
- GI50 (EKVX NSCLC): 486 nM
- TGI (EKVX NSCLC): 12600 nM
- GI50 (HCC-2998 colon): 211 nM
- TGI (HCC-2998 colon): > 100000 nM
- GI50 (HCT-116 colon): 1870 nM
- TGI (HCT-116 colon): > 100000 nM
- GI50 (HCT-15 colon): 198 nM
- TGI (HCT-15 colon): > 100000 nM
- GI50 (HL-60(TB) leukemia): 21.4 nM
- TGI (HL-60(TB) leukemia): > 57300 nM
- GI50 (HOP-62 NSCLC): 192 nM
- TGI (HOP-62 NSCLC): 75100 nM
- GI50 (HOP-92 NSCLC): < 10 nM
- TGI (HOP-92 NSCLC): 1190 nM
- GI50 (HS 578T breast): 24.4 nM
- TGI (HS 578T breast): 3020 nM
- GI50 (HT29 colon): 35.5 nM
- TGI (HT29 colon): > 100000 nM
- GI50 (IGROV1 ovarian): 13.9 nM
- TGI (IGROV1 ovarian): 82.9 nM
- GI50 (K-562 leukemia): 14300 nM
- TGI (K-562 leukemia): > 100000 nM
- GI50 (KM12 colon): 1330 nM
- TGI (KM12 colon): > 100000 nM
- GI50 (LOX IMVI melanoma): 320 nM
- TGI (LOX IMVI melanoma): 12500 nM
- GI50 (M14 melanoma): 2160 nM
- TGI (M14 melanoma): 38800 nM
- GI50 (MALME-3M melanoma): 199 nM
- TGI (MALME-3M melanoma): 10500 nM
- GI50 (MCF7 breast): 14.7 nM
- TGI (MCF7 breast): > 100000 nM
- GI50 (MDA-MB-231 breast): 1590 nM
- TGI (MDA-MB-231 breast): 13900 nM
- GI50 (MDA-MB-435): 1150 nM
- TGI (MDA-MB-435): > 100000 nM
- GI50 (MOLT-4 leukemia): 40.2 nM
- TGI (MOLT-4 leukemia): 4130 nM
- GI50 (NCI-H226 lung): 2590 nM
- TGI (NCI-H226 lung): > 100000 nM
- GI50 (NCI-H23 lung): 3860 nM
- TGI (NCI-H23 lung): > 100000 nM
- GI50 (NCI-H460 lung): 135 nM
- TGI (NCI-H460 lung): > 100000 nM
- GI50 (NCI-H522 lung): 1090 nM
- TGI (NCI-H522 lung): 59100 nM
- GI50 (NCI/ADR-RES ovarian): 1610 nM
- TGI (NCI/ADR-RES ovarian): > 100000 nM
- GI50 (OVCAR-3 ovarian): 46.8 nM
- TGI (OVCAR-3 ovarian): 11200 nM
- GI50 (OVCAR-4 ovarian): 3290 nM
- TGI (OVCAR-4 ovarian): > 100000 nM
- GI50 (OVCAR-5 ovarian): < 26.6 nM
- GI50 (OVCAR-8 ovarian): 2200 nM
- TGI (OVCAR-8 ovarian): > 100000 nM
- GI50 (PC-3 prostate): < 13.9 nM
- TGI (PC-3 prostate): > 100000 nM
- GI50 (RPMI-8226 leukemia): 7130 nM
- TGI (RPMI-8226 leukemia): > 100000 nM
- GI50 (RXF 393 renal): 15.8 nM
- TGI (RXF 393 renal): 453 nM
- GI50 (SF-268 CNS): 452 nM
- TGI (SF-268 CNS): > 100000 nM
- GI50 (SF-295 CNS): 28.7 nM
- TGI (SF-295 CNS): 1850 nM
- GI50 (SF-539 CNS): 87.6 nM
- TGI (SF-539 CNS): 1450 nM
- GI50 (SK-MEL-2 melanoma): 2050 nM
- TGI (SK-MEL-2 melanoma): > 69600 nM
- GI50 (SK-MEL-28 melanoma): 53.4 nM
- TGI (SK-MEL-28 melanoma): > 36600 nM
- GI50 (SK-MEL-5 melanoma): 2090 nM
- TGI (SK-MEL-5 melanoma): 9040 nM
- GI50 (SK-OV-3 ovarian): 17.1 nM
- TGI (SK-OV-3 ovarian): 394 nM
- GI50 (SN12C renal): 68.6 nM
- TGI (SN12C renal): > 33600 nM
- GI50 (SNB-19 CNS): 325 nM
- TGI (SNB-19 CNS): > 66800 nM
- GI50 (SNB-75 CNS): < 10 nM
- TGI (SNB-75 CNS): 58.5 nM
- GI50 (SR leukemia): 4830 nM
- TGI (SR leukemia): > 61500 nM
- GI50 (SW-620 colon): 2820 nM
- TGI (SW-620 colon): > 100000 nM
- GI50 (T-47D breast): < 10 nM
- TGI (T-47D breast): 64.8 nM
- GI50 (TK-10 renal): 22.2 nM
- TGI (TK-10 renal): 1220 nM
- GI50 (U251 CNS): 385 nM
- TGI (U251 CNS): > 100000 nM
- GI50 (UACC-257 melanoma): 56.1 nM
- TGI (UACC-257 melanoma): > 79400 nM
- GI50 (UACC-62 melanoma): < 11.3 nM
- TGI (UACC-62 melanoma): 1200 nM
- GI50 (UO-31 renal): < 11.4 nM
- TGI (UO-31 renal): 1890 nM
